Experiments:
[1] = test system: Plasmodium falciparum; assay: In vitro inhibitory concentration against chloroquine-sensitive Plasmodium falciparum; Not active; assay type: functional, organism-based
[2] = test system: Plasmodium falciparum; assay: In vitro inhibitory concentration against chloroquine-resistant Plasmodium falciparum; Not active; assay type: functional, organism-based

With CCOC(=O)c1ccc(N2CCN(c3ccc(C(=O)OCC)cc3)CC2)cc1 the IC50 [1] was “Not Active” and the IC50 [2] was “Not Active”.

For Nc1ccccc1 [ANILINE], the IC50 [1] was “Not Active” and the IC50 [2] was “Not Active”.

For CN [METHYLAMINE], the IC50 [1] was “Not Active” and the IC50 [2] was “Not Active”.

In the case of COc1ccc(N)cc1, the IC50 [1] is reported as “Not Active” and the IC50 [2] is reported as “Not Active”.

Cl.N=C(N)c1ccc(N)cc1 was tested, and the IC50 [1] was “Not Active” and the IC50 [2] was “Not Active”.

CN1CCN(C)C1c1ccc(N2CCN(c3ccc(C4N(C)CCN4C)cc3)CC2)cc1 was tested, and the IC50 [1] was “Not Active” and the IC50 [2] was “Not Active”.

— ChEMBL document CHEMBL1148226, “Evidences for the formation of bisbenzamidine-heme complexes in cell-free systems” (Bioorg Med Chem Lett, 2004)
